Measurements from ChEMBL document CHEMBL3301562, “MMV Box screening against Plasmodium falciparum protein kinases and aminoacyl tRNA synthetases”.

Tests used:
Type in all cases: functional
[1] = biological target: T1, Cdk-related protein kinase 6 (Plasmodium falciparum, UniProt O77239); assay: Final concentrations were 1.5 uM ATP, 5 mM MnCl2, and 15 ug/ml PK6 in a buffer of 100 mM Tris-HCl (pH 7.5). 50 ug/mL MBP was provided as the substrate; 10 uM staurosporine was used as a control inhibitor. Incubation time was 3 hours and 40 minutes.The catalytic activity of each kinase was considered proportional to ATP consumed, as determined from measurements of residual [ATP] with the luciferase-based reagent Kinase-Glo (Promega) following incubation. Luminescence (proportional to residual [ATP]) was measured on the plate readers FLx800 (BioTek Instruments, Winooski, VT, USA) and MicroBeta2.
T1 sequence (O77239 whole entry): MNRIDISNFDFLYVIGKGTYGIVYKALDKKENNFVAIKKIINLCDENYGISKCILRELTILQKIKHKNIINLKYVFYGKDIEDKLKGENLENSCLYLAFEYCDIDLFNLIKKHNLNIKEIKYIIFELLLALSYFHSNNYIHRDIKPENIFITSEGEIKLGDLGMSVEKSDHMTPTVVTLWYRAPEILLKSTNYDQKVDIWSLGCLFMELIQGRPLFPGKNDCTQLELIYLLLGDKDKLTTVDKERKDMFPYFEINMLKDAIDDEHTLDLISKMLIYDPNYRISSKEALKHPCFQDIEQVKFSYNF

Proline--tRNA ligase = biological target: T2, Proline--tRNA ligase (Plasmodium falciparum (isolate 3D7), UniProt Q8I5R7); assay: MMV: ProRS recombinant Plasmodium falciparum Prolyl-tRNA-synthetase, assay with yeast tRNA, ATP, and proline and 3 uM MMV malaria box compound, assay read out with kinase glo as % inhibition.
T2 sequence (Q8I5R7 whole entry): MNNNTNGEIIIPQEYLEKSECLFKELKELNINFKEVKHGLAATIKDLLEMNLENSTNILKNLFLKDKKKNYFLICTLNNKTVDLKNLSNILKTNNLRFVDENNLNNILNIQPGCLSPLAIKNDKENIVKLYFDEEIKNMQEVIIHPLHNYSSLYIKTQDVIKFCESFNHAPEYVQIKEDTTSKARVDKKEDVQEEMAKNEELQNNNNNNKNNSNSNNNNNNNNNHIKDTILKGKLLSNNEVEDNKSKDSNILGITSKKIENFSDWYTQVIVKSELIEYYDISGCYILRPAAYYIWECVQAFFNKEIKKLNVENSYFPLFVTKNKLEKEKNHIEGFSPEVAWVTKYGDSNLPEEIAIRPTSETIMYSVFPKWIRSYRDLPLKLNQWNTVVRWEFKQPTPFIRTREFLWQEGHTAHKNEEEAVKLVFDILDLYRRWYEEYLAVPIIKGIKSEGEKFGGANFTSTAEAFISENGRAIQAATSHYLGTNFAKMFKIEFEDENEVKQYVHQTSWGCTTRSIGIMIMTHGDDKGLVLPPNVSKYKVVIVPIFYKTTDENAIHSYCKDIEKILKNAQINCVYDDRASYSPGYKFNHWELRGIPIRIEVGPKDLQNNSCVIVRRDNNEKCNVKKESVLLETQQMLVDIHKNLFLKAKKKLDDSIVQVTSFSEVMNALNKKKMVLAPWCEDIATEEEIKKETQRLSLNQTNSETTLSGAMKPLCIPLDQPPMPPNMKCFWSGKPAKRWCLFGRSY

[2] = biological target: Calcium-dependent protein kinase 1 (Plasmodium falciparum, UniProt P62344); assay: MMV: CDPK1 Protein kinase inhibition assay using recombinant PfCDPK1, syntide 2 peptide substrate, ATP and KinaseGlo to measure % inhibition at 1 uM MMV box compound.
Sequence of Calcium-dependent protein kinase 1 (P62344 whole entry): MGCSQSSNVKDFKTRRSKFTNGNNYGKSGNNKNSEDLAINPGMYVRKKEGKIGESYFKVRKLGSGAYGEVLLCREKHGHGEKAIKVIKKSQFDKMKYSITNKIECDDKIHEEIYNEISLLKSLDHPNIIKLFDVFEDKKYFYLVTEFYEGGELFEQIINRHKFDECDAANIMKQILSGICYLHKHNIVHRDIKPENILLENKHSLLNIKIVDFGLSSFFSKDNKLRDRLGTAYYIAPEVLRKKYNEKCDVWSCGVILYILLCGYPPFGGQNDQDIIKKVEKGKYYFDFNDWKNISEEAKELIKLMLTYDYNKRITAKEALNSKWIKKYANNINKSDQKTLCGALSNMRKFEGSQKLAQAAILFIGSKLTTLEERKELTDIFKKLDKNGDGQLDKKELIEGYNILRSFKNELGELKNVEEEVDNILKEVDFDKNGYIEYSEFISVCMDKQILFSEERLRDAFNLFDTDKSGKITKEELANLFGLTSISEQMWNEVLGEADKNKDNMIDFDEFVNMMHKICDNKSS

[3] = biological target: T3, Putative uncharacterized protein pk7 (Plasmodium falciparum, UniProt O96214); assay: Final concentrations were 1 uM ATP, 2 mM DTT, 20 mM MgCl2, 2 mM MnCl2, 0.01% BSA, and 6 ug/ml PK7, in a buffer of 20 mM Tris-HCl (pH 7.5). The enzyme itself was the only substrate present (since autophosphorylation occurs); 100 uM 1NA-PP1 was used as a control inhibitor. Incubation time was 3 hours.
T3 sequence (O96214 whole entry): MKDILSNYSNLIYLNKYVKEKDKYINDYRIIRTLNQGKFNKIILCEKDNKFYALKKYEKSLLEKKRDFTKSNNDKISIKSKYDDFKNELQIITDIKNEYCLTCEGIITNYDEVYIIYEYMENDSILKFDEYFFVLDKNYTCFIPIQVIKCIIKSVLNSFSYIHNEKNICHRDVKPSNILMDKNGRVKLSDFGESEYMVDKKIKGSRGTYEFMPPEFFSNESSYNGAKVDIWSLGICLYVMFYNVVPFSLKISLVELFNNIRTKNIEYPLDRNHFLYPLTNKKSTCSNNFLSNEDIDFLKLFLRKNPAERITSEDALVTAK

Lysine--tRNA ligase = Lysine--tRNA ligase (Plasmodium falciparum (isolate 3D7), UniProt Q8IDJ8); assay: MMV: KRS recombinant Plasmodium falciparum Lysyl-tRNA-synthetase, assay with yeast tRNA, ATP, and lysine and 3 uM MMV malaria box compound, assay read out with kinase glo as % inhibition.
Sequence of Lysine--tRNA ligase (Q8IDJ8 whole entry): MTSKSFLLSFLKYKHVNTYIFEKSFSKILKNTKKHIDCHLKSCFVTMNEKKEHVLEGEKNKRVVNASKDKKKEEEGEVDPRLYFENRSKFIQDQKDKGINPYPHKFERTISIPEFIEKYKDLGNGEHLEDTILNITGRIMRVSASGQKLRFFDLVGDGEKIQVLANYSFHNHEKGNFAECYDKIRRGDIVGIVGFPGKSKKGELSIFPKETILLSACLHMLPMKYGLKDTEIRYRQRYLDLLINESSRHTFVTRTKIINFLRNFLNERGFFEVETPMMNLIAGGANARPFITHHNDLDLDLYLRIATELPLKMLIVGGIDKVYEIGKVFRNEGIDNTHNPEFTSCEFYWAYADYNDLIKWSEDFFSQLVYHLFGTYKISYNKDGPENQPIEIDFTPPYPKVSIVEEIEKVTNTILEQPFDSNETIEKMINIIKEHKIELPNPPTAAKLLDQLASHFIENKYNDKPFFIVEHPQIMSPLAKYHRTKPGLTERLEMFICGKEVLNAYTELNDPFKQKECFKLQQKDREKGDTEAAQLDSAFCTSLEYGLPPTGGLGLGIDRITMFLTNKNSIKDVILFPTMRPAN

[4] = biological target: T4, Mitogen-activated protein kinase (Plasmodium falciparum, UniProt Q25917); assay: Final concentrations were 1 uM ATP, 0.5 mM DTT, 1 mM MgCl2, 0.5 mg/mL BSA, and 10 ug/ml MAP2 in a buffer of 50 mM HEPES (pH 7.0). 0.5 mg/mL histone III-S served as the substrate (13); 100 uM AMP-PNP, an ATP analog, was used as a control inhibitor. Incubation time was 4 hours.
T4 sequence (Q25917 whole entry): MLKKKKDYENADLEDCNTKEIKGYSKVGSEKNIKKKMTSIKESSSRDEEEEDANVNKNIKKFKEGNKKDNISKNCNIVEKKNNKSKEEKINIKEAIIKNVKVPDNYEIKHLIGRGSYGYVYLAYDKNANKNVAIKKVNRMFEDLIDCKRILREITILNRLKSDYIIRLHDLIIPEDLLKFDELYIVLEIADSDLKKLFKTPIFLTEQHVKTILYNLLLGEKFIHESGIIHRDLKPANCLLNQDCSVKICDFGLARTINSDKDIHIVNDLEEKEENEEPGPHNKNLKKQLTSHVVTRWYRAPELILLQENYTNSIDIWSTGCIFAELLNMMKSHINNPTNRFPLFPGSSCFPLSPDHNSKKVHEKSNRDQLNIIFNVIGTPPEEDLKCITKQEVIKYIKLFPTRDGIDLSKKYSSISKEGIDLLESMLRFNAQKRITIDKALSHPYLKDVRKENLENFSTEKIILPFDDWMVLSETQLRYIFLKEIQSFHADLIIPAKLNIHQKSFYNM

[5] = biological target: T5, Calcium-dependent protein kinase 4 (Plasmodium falciparum (isolate 3D7), UniProt Q8IBS5); assay: MMV: CDPK4 Protein kinase inhibition assay using recombinant PfCDPK4, syntide2 peptide substrate, ATP and KinaseGlo to measure % inhibition at 1 uM MMV box compound.
T5 sequence (Q8IBS5 whole entry): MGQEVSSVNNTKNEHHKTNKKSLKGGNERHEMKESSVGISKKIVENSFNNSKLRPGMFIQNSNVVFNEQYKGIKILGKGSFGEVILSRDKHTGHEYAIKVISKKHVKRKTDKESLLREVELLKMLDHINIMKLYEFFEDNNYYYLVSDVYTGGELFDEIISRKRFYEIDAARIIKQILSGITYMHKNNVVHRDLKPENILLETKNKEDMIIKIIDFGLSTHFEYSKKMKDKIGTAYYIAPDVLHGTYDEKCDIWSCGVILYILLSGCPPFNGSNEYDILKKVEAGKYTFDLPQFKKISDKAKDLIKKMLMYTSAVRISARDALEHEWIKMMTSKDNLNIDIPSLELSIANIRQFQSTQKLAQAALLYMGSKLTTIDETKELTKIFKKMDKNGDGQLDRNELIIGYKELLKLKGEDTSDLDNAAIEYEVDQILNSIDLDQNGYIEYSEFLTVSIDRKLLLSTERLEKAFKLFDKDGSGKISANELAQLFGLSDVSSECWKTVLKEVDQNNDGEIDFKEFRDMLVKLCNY

SMILES	IC50 [1]	IC50 (Proline--tRNA ligase)	IC50 [2]	IC50 [3]	IC50 (Lysine--tRNA ligase)	IC50 [4]	IC50 [5]
COc1ccc(Nc2nc(N/N=C/c3ccc(O)cc3)nc(Nc3ccc([N+](=O)[O-])cc3)n2)cc1	> 1000 nM	> 2500 nM	> 1000 nM	> 1000 nM	> 2500 nM	> 1000 nM	> 1000 nM
O=C(NNc1cc(N2CCCC2)nc(N2CCCC2)n1)c1ccccc1	> 1000 nM	> 2500 nM	> 1000 nM	> 1000 nM	> 2500 nM	> 1000 nM	> 1000 nM
COC(=O)c1ccc(Cl)c2c1C1C=CCC1C(c1cccc3ccccc13)N2 (centres undefined)	> 1000 nM	> 2500 nM	> 1000 nM	> 1000 nM	> 2500 nM	> 1000 nM	> 1000 nM
O=C(CCc1ccccc1)c1ccccc1OCC(O)CN1CCCCC1 (centres undefined)	> 1000 nM	> 2500 nM	> 1000 nM	> 1000 nM	> 2500 nM	> 1000 nM	> 1000 nM
Cn1c(C(=O)c2cccc3ccccc23)nc2ccccc21	> 1000 nM	> 2500 nM	> 1000 nM	> 1000 nM	> 2500 nM	> 1000 nM	> 1000 nM
OCCNc1nc(Nc2ccc(Cl)c(Cl)c2)nc2ccccc12	> 1000 nM	> 2500 nM	> 1000 nM	> 1000 nM	> 2500 nM	> 1000 nM	> 1000 nM
Nc1ccc(-c2nc3cc(Oc4ccc(Oc5ccc6[nH]c(-c7ccc(N)cc7)nc6c5)cc4)ccc3[nH]2)cc1	> 1000 nM	> 2500 nM	> 1000 nM	> 1000 nM	> 2500 nM	> 1000 nM	> 1000 nM
CCc1ccc(CNCC(O)c2ccccc2)cc1 (centres undefined)	> 1000 nM	> 2500 nM	> 1000 nM	> 1000 nM	> 2500 nM	> 1000 nM	> 1000 nM
CCCn1c(=N)c(C(=O)NC2CCCCC2)cc2c(=O)n3cccc(C)c3nc21	> 1000 nM	> 2500 nM	> 1000 nM	> 1000 nM	> 2500 nM	> 1000 nM	> 1000 nM
Nc1ccn([C@@H]2O[C@H](CO)[C@@H](O)[C@H]2O)c(=O)n1 [CYTIDINE]	> 1000 nM	> 2500 nM	> 1000 nM	> 1000 nM	> 2500 nM	> 1000 nM	> 1000 nM
O=C(Nc1cccc(C2=NCCN2)c1)Nc1cccc(C2=NCCN2)c1 [IMIDOCARB]	> 1000 nM	> 2500 nM	> 1000 nM	> 1000 nM	> 2500 nM	> 1000 nM	> 1000 nM
CN(C)c1ccc(C(O)(c2ccc(N(C)C)cc2)c2ccc(N(C)C)cc2)cc1 [METHYLROSANILINE]	> 1000 nM	> 2500 nM	> 1000 nM	> 1000 nM	> 2500 nM	> 1000 nM	> 1000 nM
